Reference: US20030073683A1, “Administration of noncompetitive AMPA receptor antagonist for neuroprotection after traumatic brain injury” (priority 2001, published 2003)
Like-named read-outs stand apart in the source and are kept apart here.

Assays:
[1] = test system: global cerebral ischemia in rats; conditions: cited from earlier work
[2] = test system: fluid-percussion brain injury; assay: Fluid-percussion brain injury in rats: histopathological contusion areas; format: in vivo, rat; conditions: for reduction of mean contusion area vs vehicle-treated rats: 4 mg/kg bolus + 4 mg/kg/h over 72 hr I.V.
Source text: (§1) Rat Model. Fasted male Sprague-Dawley rats, weighing 290-390 g were employed. The animals were initially anesthetized with 3% halothane, 70% nitrous oxide, and a balance of oxygen. Rats were positioned in a stereotaxic frame following endotracheal intubation. A 4.8-mm craniotomy was made overlying the right parietal cortex (3.8 mm posterior to bregma and 2.5 mm lateral to midline) as previously described by Belayev et al., J. Neurotrauma, 16: 445-453 (1999) and Dietrich et al., J. Neuropathol. (Beri.) 87: 250-258 (1994). Next, a plastic injury tube was positioned over the exposed dura matter. Dental acrylic was then used to bond the injury tube to surrounding structures. After the acrylic had hardened, the injury tube was plugged with a Gelfoam sponge, the scalp closed with sutures, and the animal was returned to its cage and allowed to recover overnight.
(§2) Fluid-Percussion Brain Injury. The following day, the rats were reanesthetized with halothane, orotracheally intubated, and maintained on 70% nitrous oxide, 1.5% halothane, and a balance of oxygen. Temperature probes were inserted into the rectum (CMA/150 Temperature Controller, CMA/Microdialysis AB, Stockholm, Sweden) and the left temporalis muscle (Thermocouple Probe, Omega Engineering, Stanford, Conn.), and separate heating lamps were used to maintain rectal temperature and temporalis muscle temperature at 37.0-37.5° C. The right femoral artery and vein were catheterized for continuous blood pressure monitoring and periodic blood sampling for arterial gases, pH, hematocrit, and plasma glucose (measurements taken 15 min before TBI and 15 min after TBI). Rectal temperature and body weight was monitored before trauma and periodically for 7 days after trauma. Mean arterial blood pressure (MABP) was measured via an indwelling femoral arterial catheter connected to a precalibrated Statham pressure transducer (model P23XL, Viggo-Spectramed Inc., Oxnard, Calif., USA) and was recorded continuously (model RS3400 polygraph, Gould, Inc., Valley View, Ohio, USA). Serial measurements were made of arterial blood gases and pH (model ABL 330, Radiometer America, Inc. Westlake, Ohio, USA) and plasma glucose (model 2300 Stnt; Yellow Springs Instrument Co., Inc., Yellow Springs, Ohio, USA).
(§3) A fluid-percussion device was connected to the injury tube of the rat's skull. This device consisted of a saline-filled cylindrical Plexiglas reservoir having a rubber-coated piston at one end, a transducer housing to permit measurement of pressure transients, and a connecting device adapted to the rat's skull. Injury was induced by the descent of a pendulum, conveying a pressure transient of 1.5-2.0 atm. to the right dorsolateral parietal cortex (see Dietrich et al., J. Neuropathol. (Beri.), 87: 250-258 (1994)). Sham-operated animals (n=9) underwent similar surgical procedures but were not injured.
(§4) Drug-Infusion System. The femoral-vein cannula was tunneled subcutaneously so as to exit from the dorsal neck and was connected to a swivel device (Stoelting Co., Wood Dale, Ill., USA) attached to the roof of a spacious cage. This device allowed bi-directional rotation. PE-50 tubing extending from the other end of the device was joined to a disposable syringe attached to an infusion pump (KDS-100, KD Scientific, Boston, Mass., USA). This tethering system allowed the rats free movement without interfering with the patency of the cannula during drug administration.
(§5) Drug Administration. Talampanel (Lilly Research Laboratories, Indianapolis, Ind., USA; bolus infusion of 4 mg/kg followed by infusion of 4 mg/kg/h over 72 hr) or vehicle (40% 2-hydroxylpropyl-β-cyclodextrin solution, 0.3-ml bolus plus 0.3 ml/kg/hr over 72 hr) was administered I.V. beginning 30 min or 3 hr after trauma or sham operation.
Histopathological Analysis of Brain Trauma. Animals were allowed to survive for 7 days following fluid-percussion brain injury. […]

Sprague-Dawley rats = conditions: rat, in vivo
Source text: Fluid-Percussion Brain Injury. The following day, the rats were reanesthetized with halothane, orotracheally intubated, and maintained on 70% nitrous oxide, 1.5% halothane, and a balance of oxygen. Temperature probes were inserted into the rectum (CMA/150 Temperature Controller, CMA/Microdialysis AB, Stockholm, Sweden) and the left temporalis muscle (Thermocouple Probe, Omega Engineering, Stanford, Conn.), and separate heating lamps were used to maintain rectal temperature and temporalis muscle temperature at 37.0-37.5° C. The right femoral artery and vein were catheterized for continuous blood pressure monitoring and periodic blood sampling for arterial gases, pH, hematocrit, and plasma glucose (measurements taken 15 min before TBI and 15 min after TBI). Rectal temperature and body weight was monitored before trauma and periodically for 7 days after trauma. Mean arterial blood pressure (MABP) was measured via an indwelling femoral arterial catheter connected to a precalibrated Statham pressure transducer (model P23XL, Viggo-Spectramed Inc., Oxnard, Calif., USA) and was recorded continuously (model RS3400 polygraph, Gould, Inc., Valley View, Ohio, USA). Serial measurements were made of arterial blood gases and pH (model ABL 330, Radiometer America, Inc. Westlake, Ohio, USA) and plasma glucose (model 2300 Stnt; Yellow Springs Instrument Co., Inc., Yellow Springs, Ohio, USA). […]

[3] = test system: phenytoin-resistant status epilepticus; conditions: in vivo; cited from earlier work
flexor reflexes in cats = conditions: in vivo; cited from earlier work
kindled seizures = conditions: cited from earlier work
[4] = test system: fluid-percussion brain injury; assay: Fluid-percussion brain injury in rats: normal pyramidal neuron counts in hippocampus; format: in vivo, rat
Source text: as §1, §2, §3, §4, §5
Histopathology of Hippocampus. […]

[5] = test system: conscious male Sprague-Dawley rats; assay: Cardiovascular effects in conscious rats; format: in vivo, rat; conditions: single oral doses of 0.1, 0.3, 3 or 10 mg/kg; 2 hr
Method: Talampanel was examined for potential cardiovascular effects in conscious male Sprague-Dawley rats for 2 hr, following single oral doses of 0.1, 0.3, 3 or 10 mg/kg. The cardiovascular variables measured included systolic, diastolic and mean arterial pressure, arterial pulse pressure, and heart rate. […] Thus, taken together, these in vitro and in vivo studies makes AMPA antagonists and specifically talampanel attractive candidates for a number of therapeutic indications (data not shown).

[6] = test system: global ischemia in gerbils; conditions: 2.5-5 mg/kg, cited from earlier work
[7] = test system: severe epilepsy not responsive to other drugs; conditions: patients with severe epilepsy not responsive to other drugs; cited from earlier work
rats = assay: Preliminary experiment with continuous infusion in rats (clinical signs); format: in vivo, rat; conditions: doses of 8 and 10 mg/kg (5, 8 or 10 mg/kg tested)
Method: The dosage was chosen because talampanel has been studied in vivo in a gerbil model of global ischemia (Lodge et al., Neuropharmacology, 35: 1681-1688 (1996)). […] Therefore, the dose was reduced to about 5 mg/kg.

[8] = treatment begun at 3 hr after trauma

CC1=NN=C(c2ccc(N)cc2)c2cc3c(cc2C1)OCO3 [GYKI 52466, 1-(4-aminophenyl)-4-methyl-7,8-methylene-dioxy-5H-2,3-benzodiazepine]
neuronal damage in the CA1 sector of the hippocampus ([1]; drug pretreatment but not posttreatment): significantly attenuated | striatal neuronal damage ([1]; pretreatment or posttreatment): not affected by either drug treatment | functional deficits (learned maze responses) ([1]; pretreatment vs posttreatment): pretreatment but not posttreatment reduced functional deficits

CC(=O)N1N=C(c2ccc(N)cc2)c2cc3c(cc2C[C@H]1C)OCO3 [talampanel, (R)-7-acetyl-5-(4-aminophenyl)-8,9-dihydro-8-methyl-7H-1,3-dioxolo [4,5-h][2,3]benzodiazepine]
reduction of mean contusion area vs vehicle-treated rats ([2]; bregma level −5.8 mm, treatment 30 min after trauma, 7 days after trauma): 85% | reduction of mean contusion area vs vehicle-treated rats ([2]; bregma level −6.8 mm, treatment 30 min after trauma, 7 days after trauma): 97% | reduction of total contusion area vs vehicle-treated rats ([2]; treatment 30 min after trauma, 7 days after trauma): 70% | overall contusion volume ([2]; treatment 30 min after trauma, moderate fluid-percussion brain injury): significant reduction | contusion foci in brain sections (photomicrographs) ([2]; treatment 30 min after trauma, vs vehicle-treated rats): smaller contusion foci, typically confined to the deeper cortical layers | neuroprotective effect ([2]; treatment begun at 3 hr): lost | contusion area at bregma levels vs vehicle-treated rats [2, 8]: reduced only at one bregma level (−6.8 mm) | total contusion area, statistical comparison with vehicle-treated rats [2, 8]: did not differ statistically | mortality (Sprague-Dawley rats): None of the animals died | rectal and cranial temperatures, arterial blood gases, plasma glucose, arterial blood pressure, body weight (Sprague-Dawley rats): no significant differences between groups | seizures in status epilepticus [3]: arrested seizures in a dose-related manner | flexor reflexes (flexor reflexes in cats): inhibited flexor reflexes | chemically kindled seizures (kindled seizures; 12.5 mg/kg): suppressed chemically kindled seizures | electrically kindled seizures (kindled seizures; 20 mg/kg): suppressed | numbers of normal neurons in CA1 and CA3 sectors of sham animals ([4]; sham animals, vehicle or talampanel (30 min or 3 hr)): identical in all groups | survival of pyramidal neurons in the CA1 sector of hippocampus ([4]; treatment 30 min after trauma): increased survival | numbers of normal neurons in CA3 sector, statistical comparison with vehicle ([4]; treatment at 30 min): did not differ statistically between groups | normal pyramidal-neuron counts CA1 vs vehicle ([4]; treatment begun at 3 hr): almost identical in both groups | normal pyramidal-neuron counts in the hippocampal CA3 sector vs vehicle ([4]; treatment begun at 3 hr): did not differ between groups | ischemic damage in all three subsectors of the hippocampal CA1 sector vs vehicle ([4]; treatment starting at 30 min): significantly attenuated ischemic damage | systolic, diastolic and mean arterial pressure, arterial pulse pressure, heart rate [5]: No changes were observed | survival of hippocampal CA1 neurons / neuroprotection after global ischemia [6]: significantly neuroprotective | survival of hippocampal CA1 neurons / neuroprotection after global ischemia ([6]; listed as Talampanel): led to survival of hippocampal CA1 neurons | clinical outcome in patients [7]: positive results | clinical signs (rats): clinical signs of ataxia
